According to US10233201B2, “Class of HDAC inhibitors expands the renal progenitor cells population and improves the rate of recovery from acute kidney injury” (University of Pittsburgh—Of the Commonwealth System of …, priority 2012, dated 2019):
Where “and” joins values, the source holds several entries; their conditions need not be identical. Identical values can stand only once. Like-named read-outs stand apart in the source and are kept apart here.

Tests used:
zebrafish larvae = test: Phenotypic scoring of edema and survival in zebrafish larvae at 72 hpf; format: in vivo; conditions: for phenotype in initial chemical screen: 10 μM, larvae at 72 hpf; for larval phenotype in phenotypic screen of analogs: 3 μM, 2 to 72 hpf
Text: (§1) PTBA was synthesized as described below. Hydroxyurea and aphidicolin were obtained from Sigma-Aldrich.
Wild type: no visible edema or developmental delay.

[1] = test system: pax2a, pax8 expression (kidney field); test: In situ hybridization for renal progenitor markers pax2a, pax8 / kidney field; format: in vivo, zebrafish; conditions: screen hits, data not shown
Description: as §1
(§2) In situ hybridization and immunocytochemistry: In situ hybridization was performed as previously described with some modifications. 142 Hybridization temperature was 65° C. Embryos were blocked in 2% blocking reagent (Roche) with 5% sheep serum in MAB (100 mM maleic acid and 150 mM NaCl [pH 7.5]). Whole-mount immunocytochemistry with 1:25 mouse anti-α6F antibody (Developmental Studies Hybridoma Bank) and 1:100 Cy3 secondary antibody (Jackson ImmunoResearch) was performed as described previously. 108 Embryos were embedded in JB-4 for sectioning per the manufacturer's instructions (Polysciences), sectioned at 5 μm, and mounted with Cytoseal 60 (Richard-Allan Scientific).

[2] = test system: renal progenitor cells (lhx1a expression); test: In situ hybridization for lhx1a expression in 10-somite embryos (renal progenitor cell expansion); format: in vivo; conditions: for lhx1a expansion class, 3 μM / embryos with expanded lhx1a expression (% expansion): 3 μM from 2 hpf, 10-somite embryos; for lhx1a expansion class, 800 nM: 800 nM from 2 hpf; for lhx1a expansion class, 200 nM: 200 nM from 2 hpf; for lhx1a expansion class, 400 nM: 400 nM from 2 hpf; for Expansion of Cells, 800 nM / Expansion of Cells, 1.5 μM / Expansion of Cells, 400 nM / Expansion of Cells, 200 nM: lhx1a in situ hybridization, includes repeats* and recounts
Description: as §1, §2
The remaining PTBA analogs were synthesized.
In situ hybridization for lhx1a was performed as described above. […] Compounds were classified as effective, partially-effective or ineffective based on comparison to the effects of PTBA at a given concentration.
Testing of the compounds is on-going, but for those tested, Table 3 provides first pass EC50s based upon colormetric in situ hybridizations for the Lhx1a mRNA expression levels. After the procedure is run, in situ hybridization is done for the lhx1 mRNA expression and the number of embryos that show an expanded kidney field is manually counted to establish the percent of embryos showing expansion. Then the EC50 is determined by plotting the percent expansion in Excel, graphing the results and using the trendline function to determine the 50 percent point. […] For UPHD-00186, the 4 values for EC50 are shown in Table 3 for the corresponding expression in zebrafish embryos employed an artificial intelligence-based image analysis method termed cognition network technology (CNT) for n=4.

[3] = test system: mouse models of unilateral ureteral obstruction (UUO); test: Unilateral ureteral obstruction (UUO); format: in vivo; conditions: IP days 0 to 6, kidneys harvested at day 7
Text: The model of unilateral ureteral obstruction generates progressive renal fibrosis. Surgically created UUO can be experimentally manipulated with respect to timing, severity, and duration, while reversal of the obstruction permits the study of recovery.
FIG. 47 represents the results of the testing of compounds UPHD-00022, UPHD-00025 (PTBA), UPHD-00029, UPHD-00036, and UPHD-00186, for their efficacy in mouse models of unilateral ureteral obstruction (UUO) as follows: in the UUO models, one ureter was ligated for 7 days and compounds were delivered via IP for days 0 to 6. At day 7 kidneys were harvested for Sirius red staining. […] Therefore, in the models tested, the only compound proven to be effective in all models and with significant delayed onset of treatment is UPHD-186.

[4] = test system: human HDACs (HeLa cell nuclear extract); test: Fluorescence histone deacetylation assay with HeLa cell nuclear extract; format: biochemical; conditions: 5 mM compound, 10 μg HeLa extract
Description: To evaluate this in vitro, the deacetylation of a fluorescent peptide substrate was measured in the presence of human HDACs.
In vitro HDAC activity assays were performed using a fluorescence HDAC assay kit (Active Motif) according to the manufacturer's instructions. For maintaining compound solubility at 5 mM, the final DMSO concentration in all assay wells was increased to 5%. Fluorescence was detected using an M5 Plate Reader ([…])

[5] = Danio rerio, 800 nM, read-out: embryos with expanded lhx1a expression (% expansion)
[6] = Danio rerio, 400 nM, read-out: embryos with expanded lhx1a expression (% expansion)

Compound: N=C(N)SCc1ccc(Cl)cc1Cl.O=[N+]([O-])c1c(O)c(Cl)cc(Cl)c1Cl [NSC35400]
- phenotype in initial chemical screen (zebrafish larvae): generated pericardial edema
- effect on size of the kidney field / renal markers (in situ hybridization) [1]: did not affect the size of the kidney field

Compound: Cn1cc(C(=O)Cc2ccccc2)cc1/C=C/C(=O)NO [APHA compound 8, reference compound]
- lhx1a expansion class, 3 μM [2]: −

Compound: O=C(CCCSc1ccc(Cl)cc1)NO [4-[(4-chlorophenyl)thio]-N-hydroxybutanamide]
- lhx1a expansion class, 800 nM [2]: +/−

Compound: O=C(CCCCCCC(=O)Nc1ccc([C@H]2O[C@@H](CSc3nc(-c4ccccc4)c(-c4ccccc4)o3)C[C@@H](c3ccc(CO)cc3)O2)cc1)NO [tubacin]
- larval phenotype in phenotypic screen of analogs (zebrafish larvae): appeared wild-type

Compound: CCC(=O)CCCCC[C@@H]1NC(=O)[C@H]2CCCCN2C(=O)[C@H]([C@@H](C)CC)NC(=O)[C@H](Cc2cn(OC)c3ccccc23)NC1=O [apicidin, reference compound]
- lhx1a expansion class, 200 nM [2]: −
- lhx1a expansion class, 400 nM [2]: +/−
- lhx1a expansion class, 800 nM [2]: XX^1
- embryos surviving treatment ([2]; 800 nM, n=36): 31%
- treated embryos killed ([2]; 800 nM, n=36): 69%
- lethality before the 10-somite stage ([2]; 1.5 μM): lethal
- lethality before the 10-somite stage ([2]; 3 μM): killed all treated embryos
- responders at 0.4 µM ([2]; Danio rerio, read-out: embryos with expanded lhx1a expression (% expansion), 400 nM): 22%

Compound: CCCOC(=O)CCCSc1ccccc1 [propyl 4-(phenylthio)butanoate]
- lhx1a expansion class, 800 nM [2]: +/−

Compound: Nc1ccccc1NC(=O)CCCCSCc1ccccc1 [UPHD-00188, N-(2-aminophenyl)-5-(benzysulfanyl) pentanamide]
- Expansion of Cells, 800 nM [2]: 0%
- Expansion of Cells, 1.5 μM [2]: 0%

Compound: CC(C)(C)OC(=O)CCCSc1ccccc1 [tert-butyl 4-(phenylthio)butanoate]
- larval phenotype in phenotypic screen of analogs (zebrafish larvae): did not cause a statistically-significant decrease in the number of wild-type larval phenotypes

Compound: O=C(O)CCCSc1ccc2ccccc2c1 [4-(naphthalen-2-ylthio)butanoic acid, reference compound]
- embryos with expanded lhx1a expression (% expansion) ([2]; listed as 4-(napthalen-2-ylthio)butanoic acid): no expansion

Compound: Nc1ccccc1NC(=O)CCCSc1ccccc1 [UPHD-00036, N-(2-aminophenyl)-4-(phenylsulfanyl)butanamide]
- fibrosis (Sirius red) and expression of fibrosis markers in UUO kidney [3]: reduce both fibrosis and expression of fibrosis markers

Compound: CCC(C)OC(=O)CCCSc1ccccc1 (stereo not shown) [butan-2-yl 4-(phenylthio)butanoate]
- lhx1a expansion class, 800 nM [2]: +/−

Compound: COC(=O)CCCSc1ccc(C)cc1 [methyl 4-[(4-methylphenyl)thio]butanoate]
- lhx1a expansion class, 200 nM [2]: −
- lhx1a expansion class, 400 nM [2]: −
- lhx1a expansion class, 800 nM [2]: +
- responders at 0.8 µM [2, 5]: 49%

Compound: O=C(CCCSc1ccccc1)NO [N-hydroxy-4-(phenylthio)butanamide]
- lhx1a expansion class, 800 nM [2]: +/−

Compound: N=C(N)c1ccc(N=Nc2c(O)ccc3c2[nH]c2ccccc23)cc1 [NSC357777]
- phenotype in initial chemical screen (zebrafish larvae): generated pericardial edema
- effect on size of the kidney field / renal markers (in situ hybridization) [1]: did not affect the size of the kidney field

Compound: O=C(O)CCCS(=O)(=O)c1ccccc1 [PSOBA, 4-(phenylsulfonyl)butanoic acid, reference compound]
- embryos with expanded lhx1a expression (% expansion) [2]: no ability to expand renal progenitor cells
- HDAC activity, % of the control value [4]: 70%

Compound: O=C(O)CCCCc1ccccc1 [5-phenylpentanoic acid, reference compound]
- embryos with expanded lhx1a expression (% expansion) [2]: no expansion

Compound: CCCC(CCC)C(=O)O [valproic acid]
- larval phenotype in phenotypic screen of analogs (zebrafish larvae): generated edemic and/or lethal phenotypes

Compound: COC(=O)CCCSc1ccc(F)cc1 [methyl 4-[(4-fluorophenyl)thio]butanoate]
- lhx1a expansion class, 200 nM [2]: +/−
- lhx1a expansion class, 400 nM [2]: +/−
- lhx1a expansion class, 800 nM [2]: +
- lethality before the 10-somite stage ([2]; 3 μM): killed all treated embryos
- responders at 0.2 µM ([2]; Danio rerio, 200 nM, read-out: embryos with expanded lhx1a expression (% expansion)): 22%
- responders at 0.4 µM [2, 6]: 26%
- responders at 0.8 µM [2, 5]: 64%

Compound: Cc1ccc(SCCCC(=O)NO)cc1 [N-hydroxy-4-[(4-methylphenyl)thio]butanamide]
- lhx1a expansion class, 200 nM [2]: −
- lhx1a expansion class, 400 nM [2]: −
- lhx1a expansion class, 800 nM [2]: +
- responders at 0.8 µM [2, 5]: 61%

Compound: O=C(CCCCCSc1ccccc1)Nc1ccccc1O [UPHD-00187, N-(2-hydroxyphenyl)-6-(phenylsulfanyl) hexanamide]
- Expansion of Cells, 400 nM [2]: 58%
- Expansion of Cells, 800 nM [2]: 52%
- Expansion of Cells, 1.5 μM [2]: 52%

Compound: O=C(O)c1cccc(Sc2ccccc2)c1 [3-(phenylthio)benzoic acid, reference compound]
- embryos with expanded lhx1a expression (% expansion) [2]: no expansion

Compound: O=C(CCCSc1ccc(F)cc1)NO [UPHD-00029, 4-[(4-fluorophenyl)sulfanyl]-N-hydroxybutanamide]
- lhx1a expansion class, 200 nM [2]: −
- lhx1a expansion class, 400 nM [2]: +/−
- lhx1a expansion class, 800 nM [2]: +
- responders at 0.4 µM [2, 6]: 35%
- responders at 0.8 µM [2, 5]: 60%
- Expansion of Cells, 200 nM [2]: 6.25%
- Expansion of Cells, 800 nM [2]: 60% and 33%
- Expansion of Cells, 1.5 μM [2]: 82.4%
- fibrosis (Sirius red) and expression of fibrosis markers in UUO kidney [3]: reduce both fibrosis and expression of fibrosis markers

Compound: COc1ccc(/C=C(\C#N)C(N)=O)c(OC)c1 [NSC134664]
- phenotype in initial chemical screen (zebrafish larvae): generated pericardial edema
- effect on size of the kidney field / renal markers (in situ hybridization) [1]: did not affect the size of the kidney field

Compound: Nc1ccccc1NC(=O)CCCSCCc1ccccc1 [UPHD-00190, N-(2-aminophenyl)-4-[(2-phenylethyl)sulfanyl]butanamide]
- expansion ([2]; 0.055 μM): 72%
- Expansion of Cells, 200 nM [2]: 50%
- Expansion of Cells, 400 nM [2]: 0%
- Expansion of Cells, 800 nM [2]: 0%
- Expansion of Cells, 1.5 μM [2]: 0%

Compound: Nc1ccccc1NC(=O)c1ccc(CNC(=O)OCc2cccnc2)cc1 [MS-275, reference compound]
- lhx1a expansion class, 3 μM [2]: −
- larval phenotype in phenotypic screen of analogs (zebrafish larvae): showed no effect on zebrafish embryos

Compound: O=C(CCCCCCC(=O)Nc1ccccc1)NO [SAHA, reference compound]
- lhx1a expansion class, 3 μM [2]: −
- larval phenotype in phenotypic screen of analogs (zebrafish larvae): showed no effect on zebrafish embryos

Compound: 2-amino-PTBA [Compound 2-amino-PTBA, reference compound]
- embryos with expanded lhx1a expression (% expansion) [2]: no expansion
